Data from patent US20240102100A1, “RIBOSOMAL RNAS 2'O-M[…] A NOVEL SOURCE OF […] FOR DIAGNOSIS, PROGNOSIS AND THERAPY OF CANCERS” (CENTRE LEON BERARD, priority 2020, published 2024).

Experiments:
hMEC epithelial cells = test: Cell viability monitored in real time (Incucyte), cell confluence as read-out, with increasing concentration of anisomycin; format: cell-based, human; conditions: real-time monitoring
Excerpt: (§1) Cell lines and cell viability. The epithelial and mesenchymal cellular models were kindly provided by Alain Puisieux's team (17). Briefly, the human epithelial mammary cell (hMECs) were used to derive EMT-related cellular models. The hMEC cell line corresponds to epithelial cells (Lonza) that were immortalized by lentiviral transduction allowing hTERT overexpression. The hMEC cell line was then transduced with lentiviral vector to induce stable over-expression of the murine EMT-TF ZEB1 and to promote EMT and thus generates the hMEC-ZEB1 mesenchymal cell line. The hMEC cellular models were maintained in DM EM-F12 (Gibo) supplemented with 0.5 μg/ml hydrocortisone, 10 ng/ml EGF, […] insulin, 10% fetal calf serum, 100 μg/ml streptomycin and 100 units/ml of penicillin. Selective pressure was maintained with puromycin for hMEC-ZEB1. Cell viability was monitored in real-time using Incucyte Live-Cell analysis system (Statorius). Cells were plated in 96-well plates without selective pressure for 24 hrs before addition of the anisomycin antibiotic (range concentration 2-200 nM). DMSO was used as negative control.
(§2) At day 6, difference in cell viability was determined using cell confluence as a read-out.

[1] = test system: hMEC-ZEB1 mesenchymal cells; test: as above; format: cell-based, human
Excerpt: as §1, §2

Structure (SMILES): COc1ccc(C[C@H]2NC[C@H](O)[C@H]2OC(C)=O)cc1 [anisomycin]
- change in cell morphology (hMEC epithelial cells): no change in cell morphology was observed
- sensitivity to anisomycin treatment (cell viability, cell confluence as read-out) ([1]; hMEC-ZEB1 mesenchymal cells compared with hMEC epithelial cells, anisomycin 2-200 nM, day 6): more sensitive
- change in cell morphology ([1]; mesenchymal cells, increasing concentration of anisomycin, real-time monitoring): no change in cell morphology was observed
